Laboratory results: US7361633B2, “Screening method and anti-tumor drug candidate obtained therefrom” (Ardana Bioscience Limited, priority 2002, dated 2008)
“Also recorded” adds a separate entry of the source.

What was measured:
[1] = system: HEK293 cells stably expressing the Type I GnRHR (SCL60); test: Anti-proliferative effect on SCL60 cells, viable cell count after 5 days; type: cell-based, human; details: 5 days continuous treatment, trypan blue exclusion
Procedure: An identical methodology of measuring cell growth was employed as in FIG. 1.
(§1) Each cell type was plated at an initial minimal confluency (10-20%) to allow for 5 days of normal continual cell growth that would not result in 100% cell confluency by day 5. Each ligand was incubated, in triplicate for every experimental concentration, with the cell monolayers for five days with replacement of the ligand every 12 h. At the end of the stimulation period the number of viable cells was estimated by their capacity to prevent uptake of Trypan Blue stain.
We further investigated the nature of the ligand-receptor specificity of the anti-proliferative effects of GnRH receptor systems by studying our ligand panel effects upon a model cell background, i.e. SCL60 HEK293 cells stably expressing the rat Type I GnRHR. […] We attribute this greater effect of the GnRHR ligands upon the SCL60 cells to the much greater level of receptor expression in the SCL60 cells.

ERK1/2 [2] = test: ERK1/2 phosphorylation immunoblot in BPH-1 cells; type: cell-based, human; details: for extent of ERK1/2 activation: FIG. 5 panel c
Text: The panel depicts a representative anti-phospho-ERK1/2 w-c lysate immunoblot of stimulated BPH-1 cell extracts. […] Each bar of the histogram represents the mean±s.e. mean of three to four experimental replicates. […] Panel c) depicts the extent of ERK1/2 activation in BPH-1 cells induced by stimulation with GnRH I, II, Ant 135-25 and Ant 135-18. […] Each bar of the histogram represents the mean± s.e. mean of three to four experimental replicates.

JNK2 = test: Phosphorylation of immunoprecipitated myc-JNK2 in JEG-3 cells; type: cell-based, human; details: for activation (phosphorylation) of myc-JNK2: 100 nM; for effect of PTX pre-incubation on JNK phosphorylation: ligand 100 nM, PTX 16 h 200 ng/ml
Procedure: The activation of two other forms of mitogen-activated protein kinase (MAPK) was studied in JEG-3 and BPH-1 cells by overexpressing myc-tagged constructs of JNK2 or p38α. Immunoprecipitation of these constructs after GnRHR-ligand stimulation of either cell line allowed the degree of kinase activation to be assessed using antisera specific for the active, phosphorylated, form of the kinase. […] In both panel a and b, the dose of GnRH I employed was 100 nM. The respective histograms in each panel represent the mean±s.e. mean of three experimental replicate time courses.
The inset immunoblots depict the phosphorylation status of the immunoprecipitated JNK2 increasing while the level of total unphosphorylated protein (detected with α-JNK antisera) remains unchanged. The histogram below depicts the mean±s.e. mean of three experimental replicates of the above western blot. Stimulation of BPH-1 cells with the same range of ligands (Panel b) yields a similar pattern of MAPK activation, but in this case p38α. […] The inset immunoblots depict an increasing phosphorylation of p38α with no increase in total p38α protein. The histograin below depicts the mean±s.e. mean of three experimental replicates of the above western blot.
Stimulation of JNK in JEG-3 cells and p38 in BPH-1 cells and its sensitivity to pre-exposure to PTX was assessed by measuring the degree of activating phosphorylation of immunoprecipitated myc-JNK2 or myc-p38α. Panel a depicts a representative western blot of immunoprecipitated myc-JNK2 from JEG-3 cells stimulated with either GnRH I (100 nM) or Ant 135-25 (100 nM). The phosphorylation status of JNK was elevated by GnRH I and Ant135-25 with no significant alteration in total immunoprecipitated JNK levels (assessed by immunoblot with α-myc antisera). […] The histograms in panels b and c depict the mean±s.e. mean of three experimental replicates of the above western blot (panel a) experiments. Panel d depicts an identical experiment to that in panel a except that it is the phosphorylation status of immunoprecipitated myc-p38α that is being measured. […] The histograms in panels e and f depict the mean±s.e. mean of three experimental replicates of the above western blot (panel d) experiments.
Thus it appears that the ability of the GnRH-induced stimulation of either JEG-3 or BPH-1 cells is not correlated to their anti-proliferative action. […] Using specific antisera against the kinase active form of ERK5 (or BMK) we observed no specific activation of this form of MAPK however using antisera specifically recognising the active forms of either c-Jun N-terminal kinase (JNK) or p38 MAPK we noted that in JEG-3 cells there was a potent, yet delayed GnRH-induced activation of JNK and a similarly slow inset activation of p38 in the BPH-1 cells. The level of activation of the endogenous stress-activated protein kinases (SAPKs) was relatively small but greater than the GnRH-activated ERK levels in these cells. To further investigate the validity of the observed SAPK activation we transfected the tumour cell lines with myc-tagged JNK2 or p38α MAPK isoforms, stimulated the cells with GnRH and then immunoprecipitated with anti-myc sera and western blotted the immunoprecipitates for total JNK/p38 protein and active JNK/p38. In FIG. 7 (panel a) GnRH causes a demonstrable, time-dependent and protracted activation of the immunoprecipitated JNK2. Activation of JNK2 typically only occurred after 30 minutes of GnRH I stimulation. […] As with the activation of the JNK in the JEG-3 cells there was a considerable delay in the onset of the p38 activation unlike the ERK signalling events that typically occur and peak within 20 minutes of GnRH ligand application (FIG. 7, panel b).

ERK1/2 [3] = test: ERK1/2 phosphorylation immunoblot in JEG-3 cells; type: cell-based, human; details: for extent of ERK1/2 phosphorylation (activation): 100 nM, 10 minutes
[4] = system: human JEG-3 choriocarcinoma cells; test: Anti-proliferative effect on JEG-3 cells, viable cell count after 5 days; type: cell-based; details: 5 days continuous treatment, trypan blue exclusion
Procedure: Low cell density JEG-3 cell subcultures were treated for 5 days continuously with the indicated doses of GnRH I (a), GnRH II (b), antagonist 135-18 (c) or antagonist 135-25 (d) added directly to Dulbecco's modified Eagles medium supplemented with 10% FCS, glutamine and penicillin/streptomycin. Ligands were replenished every 24 h. At the end of the stimulation period cells were removed from the growth plates with trypsin and mixed with trypan blue dye (enters non-viable cells). Only viable cells were therefore counted using a haemocytometer in quadruplicate for each ligand dose. The bars in each histogram represent the mean±s.e. mean of n=4 experiments.
as §1

| Molecule | anti-proliferative effect (viable cell number) [1] | anti-proliferative effect (viable cell number) ([1]; listed as Ant135-25) | extent of ERK1/2 activation (ERK1/2 [2]) | activation (phosphorylation) of myc-JNK2 (JNK2) | effect of PTX pre-incubation on JNK phosphorylation (JNK2) | extent of ERK1/2 phosphorylation (activation) (ERK1/2 [3]) | anti-proliferative effect (viable cell number) [4] | ERK1/2 activation, dose dependence (ERK1/2 [2]; FIG. 5 panel a) | time to onset of JNK2 activation (JNK2) [min] | anti-proliferative effect (viable cell number) ([1]; listed as Ant135-18) | extent of ERK1/2 activation (ERK1/2 [2]; listed as Ant135-18) | activation (phosphorylation) of myc-JNK2 (JNK2; listed as Ant135-18) | extent of ERK1/2 phosphorylation (activation) (ERK1/2 [3]; listed as Ant135-18) | anti-proliferative effect (viable cell number) ([4]; listed as Ant135-18) | effect on GnRH-mediated ERK activation (ERK1/2 [2]; 1 μM SB203580, data not shown) | effect on GnRH I stimulation of JNK (JNK2; 20 μM SB203580, data not shown) | effect on GnRH I activation of ERK1/2 (ERK1/2 [3]; 20 μM SB203580, data not shown) |
| --- | --- | --- | --- | --- | --- | --- | --- | --- | --- | --- | --- | --- | --- | --- | --- | --- | --- |
| Ac-D-Nal(2)-D-4-ClPhe-D-Pal-Ser-1-MePal-D-IsopropylLys-Leu-IsopropylLys-Pro-D-AlaNH2 [Ant 135-25] | greater anti-proliferative efficacy | nearly an as efficacious action as either GnRH I or GnRH II | A similar pattern to JEG-3 of ligand activation | can efficiently activate the myc-JNK2 construct | abolished with the PTX pre-incubation | activate ERK1/2 to a similar extent | clear dose-response relationships for the inhibition of cellular growth | – | – | – | – | – | – | – | – | – | – |
| GnRH I: Gonadotropin-Releasing Hormone, a decapeptide; the original form of GnRH, re-named GnRH I | greater anti-proliferative efficacy; also recorded: dramatic reduction in the cells growth rate and significant loss of total cell number | – | A similar pattern to JEG-3 of ligand activation | significant activation of the immunoprecipitated myc-JNK2; also recorded: can efficiently activate the myc-JNK2 construct | abolished with the PTX pre-incubation | activate ERK1/2 to a similar extent | potent and dose-dependent anti-proliferative effect; also recorded: clear dose-response relationships for the inhibition of cellular growth | strong and dose-dependent activation of ERK1/2 | > 30 | – | – | – | – | – | – | – | – |
| Ac-D-Nal(2)-D-4-ClPhe-D-Pal-Ser-Ile-D-IsopropylLys-Leu-IsopropylLys-Pro-D -AlaNH2 [Ant 135-18] | low efficacy compared to the other ligands | – | A similar pattern to JEG-3 of ligand activation | fails to efficiently activate JNK | – | least effective | much lower potency and efficacy compared to 135-25, GnRH I and II | – | – | relatively ineffective at inhibiting the SCL60 cell proliferation | considerably less | dramatically lower efficacy than GnRH I or Ant 135-25 | considerably less | failed to demonstrate an anti-proliferative effect of a similar magnitude to that generated by GnRH I, GnRH II or Ant135-25 | – | – | – |
| C[S+]([O-])c1ccc(-c2nc(-c3ccncc3)c(-c3ccc(F)cc3)[nH]2)cc1 (stereo not shown) [SB203580] | – | – | – | – | – | – | – | – | – | – | – | – | – | – | no significant effect | effectively abrogates the ability of GnRH I to stimulate JNK | not significantly affecting the activation of ERK1/2 MAPKs |
